Data reported in PubChem BioAssay (NCI).
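Five compound concentrations were applied to cells in 96-well plates for 48 hours; endpoints were derived by simple linear interpolation of the resulting dose-response curve. GI50: concentration for 50% inhibition of growth. Definition used: TGI = concentration required for complete inhibition of growth.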

Assays:
Assay in all cases: DTP human tumour cell line panel, 48 h
CCRF-CEM leukemia = tested on: CCRF-CEM leukemia
UO-31 renal = tested on: UO-31 renal
SK-OV-3 ovarian = tested on: SK-OV-3 ovarian
HOP-62 NSCLC = tested on: HOP-62 NSCLC
SW-620 colon = tested on: SW-620 colon
ACHN renal = tested on: ACHN renal
SR leukemia = tested on: SR leukemia
NCI-H522 lung = tested on: NCI-H522 lung
SK-MEL-28 melanoma = tested on: SK-MEL-28 melanoma
HS 578T breast = tested on: HS 578T breast

SMILES | TGI (CCRF-CEM leukemia) | TGI (UO-31 renal) | TGI (SK-OV-3 ovarian) | TGI (HOP-62 NSCLC) | TGI (SW-620 colon) | TGI (ACHN renal) | TGI (SR leukemia) | TGI (NCI-H522 lung) | TGI (SK-MEL-28 melanoma) | GI50 (CCRF-CEM leukemia) | GI50 (UO-31 renal) | GI50 (SR leukemia) | GI50 (SK-OV-3 ovarian) | GI50 (NCI-H522 lung) | GI50 (HOP-62 NSCLC) | GI50 (SW-620 colon) | GI50 (SK-MEL-28 melanoma) | GI50 (ACHN renal) | GI50 (HS 578T breast) | TGI (HS 578T breast)
CSc1nc(NC2OCC(OC(C)=O)C(OC(C)=O)C2OC(C)=O)c(N=C(C)C(C)=O)c(=O)n1C (stereo not drawn) | > 100 µM | > 100 µM | > 100 µM | > 100 µM | > 100 µM | > 100 µM | – | – | – | – | – | – | – | – | – | – | – | – | – | –
O=C(Cc1nc2ccccc2s1)Nc1ccc(Cl)cc1 | > 100 µM | > 100 µM | > 100 µM | > 100 µM | > 100 µM | > 100 µM | > 100 µM | > 100 µM | > 100 µM | – | – | – | – | – | – | – | – | – | – | –
C[N+](C)(C)CC(=O)N/N=C(\CCC(=O)NCCc1ccccc1)CC(=O)c1ccccc1 | > 100 µM | > 100 µM | > 100 µM | > 100 µM | > 100 µM | > 100 µM | – | > 100 µM | – | – | – | – | – | – | – | – | – | – | – | –
CCN(CC)c1ccc(C2CC(c3cc(OC)c(OC)c(OC)c3)=NN2)cc1 (stereo not drawn) | 1.16 µM | > 100 µM | > 100 µM | > 21.1 µM | > 100 µM | > 100 µM | 1.73 µM | 5.18 µM | > 100 µM | 0.277 µM | 1.5 µM | 0.286 µM | 0.537 µM | 0.295 µM | 0.456 µM | 0.47 µM | 23.7 µM | 1.55 µM | – | –
COC(=O)C(Cc1cnc[nH]1)NC(=O)CNC(=O)CCCn1c(=O)c2c3ccccc3n(C)c2n2nnc(-c3ccccc3)c12 (stereo not drawn) | > 100 µM | > 100 µM | > 100 µM | > 100 µM | > 100 µM | > 100 µM | – | > 100 µM | > 100 µM | > 100 µM | > 100 µM | – | > 100 µM | > 100 µM | > 100 µM | > 100 µM | > 100 µM | > 100 µM | > 100 µM | > 100 µM
COc1cc2c3c(c4ccc(OC)c(OC)c4c2cc1OC)CN1CCC[C@@H]1C3 | 0.651 µM | 0.291 µM | 2.84 µM | 39.8 µM | > 47.7 µM | 3.55 µM | – | 0.792 µM | 7.43 µM | – | – | – | – | – | – | – | – | – | – | 0.593 µM
Nc1nc(Cl)cc(NCCCCCNc2cc(Cl)nc(N)n2)n1 | > 100 µM | > 100 µM | > 100 µM | > 100 µM | > 100 µM | 52.2 µM | > 100 µM | > 100 µM | > 100 µM | – | – | – | – | – | – | – | – | – | – | –
O=C(NCCO)c1cc2c(cn1)[nH]c1ccccc12 | > 100 µM | > 100 µM | > 100 µM | 40.1 µM | > 100 µM | > 100 µM | – | > 100 µM | > 100 µM | – | – | – | – | – | – | – | – | – | – | –
CCOC(CCCNCCCn1c2c(c3cc(OC)c(OC)cc3c1=O)C(=O)c1cc3c(cc1-2)OCO3)OCC | 6.24 µM | 11.9 µM | 12.8 µM | – | 10.5 µM | 7.66 µM | – | 11.3 µM | 12.5 µM | 0.759 µM | 5.82 µM | – | 6.47 µM | 5.34 µM | – | 2.63 µM | 6.22 µM | 1.28 µM | 5.76 µM | 12.7 µM
CC1=C(C(=O)Nc2ccccc2)C(c2ccc([N+](=O)[O-])cc2)C(C(=O)Nc2ccccc2)=C(C)N1 | 39.8 µM | > 100 µM | – | > 100 µM | 38.5 µM | > 100 µM | 45.7 µM | 63.8 µM | 88.5 µM | – | – | – | – | – | – | – | – | – | – | –
